Laboratory results published in ChEMBL document CHEMBL1201862, “PubChem BioAssay data set” (2004).
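All cell lines were grown in 96-well plates and treated with compound for 48 hours. Abbreviation: GI50, concentration required for 50% inhibition of growth.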 Active and inactive are the calls of the source. Rule as the data show it: active = GI50 up to about 1.1 µM and inactive = higher. Non-standard residues stand in square brackets, D forms with d. Residues, ends and D or L forms follow the SMILES beside them. *: point of attachment. NMeF = CN[CH](Cc1ccccc1)C(=O)O; NMeV = CN[CH](C(=O)O)C(C)C; Boc = CC(C)(C)OC(=O)*

Assays:
Assay in all cases: NCI-60 cell line screen, 48 h
[1] = tested on: OVCAR-8
[2] = tested on: 786-0
[3] = tested on: HT-29
[4] = tested on: RXF 393
[5] = tested on: SK-MEL-5
[6] = tested on: EKVX
[7] = tested on: UACC-257
[8] = tested on: HOP-62
[9] = tested on: U-251
[10] = tested on: OVCAR-5
[11] = tested on: A549
[12] = tested on: M14
[13] = tested on: SN12C
[14] = tested on: SNB-19
[15] = tested on: SF-295
[16] = tested on: SK-MEL-2

Measured: GI50

N=C(N)NS(=O)(=O)c1ccc(Nc2c3ccccc3nc3c(C(=O)Nc4ccc(S(N)(=O)=O)cc4)ccc(Cl)c23)cc1
inactive: [1] 58.2 µM | [2] > 100 µM | [3] > 100 µM | [4] > 100 µM | [5] > 100 µM | [6] > 100 µM | [7] > 100 µM | [8] > 100 µM | [9] > 100 µM | [10] > 100 µM | [11] > 100 µM | [12] > 100 µM | [13] > 100 µM | [14] > 100 µM | [15] > 100 µM

CC(C)N1CN(C(C(=O)N[C@@H]2C(=O)N3C2SC(C)(C)C3C(=O)O)c2ccc(O)cc2)CSC1=S (some centres not stated)
inactive: [1] > 100 µM | [2] > 100 µM | [3] > 100 µM | [16] > 100 µM | [5] > 100 µM | [6] > 100 µM | [7] > 100 µM | [8] > 100 µM | [9] > 100 µM | [10] > 100 µM | [12] > 100 µM | [13] > 100 µM | [14] > 100 µM | [15] > 100 µM

COc1ccc(-c2cc(=O)c3cc(O)ccc3o2)c(OC)c1OC
inactive: [2] 29 µM | [3] 44.2 µM | [4] 28.2 µM | [16] 28.3 µM | [6] 12.2 µM | [7] 32.2 µM | [8] 42.7 µM | [10] 20.2 µM | [11] 35.6 µM | [12] 37.9 µM | [13] 32.6 µM | [14] 47.4 µM | [15] 24.7 µM

O=C(CC(=O)N1N=C(n2ccc3ccccc32)CC1c1ccccc1)Nc1ccccc1Cl (configuration not stated)
inactive: [1] > 100 µM | [2] > 100 µM | [3] > 100 µM | [4] > 100 µM | [16] > 100 µM | [6] > 100 µM | [7] > 100 µM | [8] > 100 µM | [9] > 100 µM | [11] > 100 µM | [12] > 100 µM | [13] > 100 µM | [14] > 100 µM | [15] > 100 µM

CC1=NC2(C(=O)O)C3(C(=O)O)N=C(C)OC3(C(F)(F)F)C2(C(F)(F)F)O1 (configuration not stated)
inactive: [1] > 100 µM | [2] > 100 µM | [3] > 100 µM | [4] > 100 µM | [16] > 100 µM | [6] > 100 µM | [7] > 100 µM | [8] > 100 µM | [9] > 100 µM | [10] > 100 µM | [11] > 100 µM | [12] > 100 µM | [13] > 100 µM | [14] > 100 µM | [15] > 100 µM

CC(C)C(NC(=O)OC(C)(C)C)C(=O)N(C)C(Cc1ccccc1)C(=O)N(C)C(C(=O)O)C(C)C (stereo not drawn) (Boc-Val-[NMeF]-[NMeV]-OH; configuration not given here)
inactive: [1] > 100 µM | [2] > 100 µM | [3] > 100 µM | [5] > 100 µM | [6] > 100 µM | [7] > 100 µM | [8] > 100 µM | [9] > 100 µM | [11] > 100 µM | [12] > 100 µM | [13] > 100 µM | [14] > 100 µM | [15] > 100 µM

C=C1C(=O)OC2C1CC[C@H](C)C13OC(=O)CC1[C@@]23C (some centres not stated)
inactive: [1] > 100 µM | [2] > 100 µM | [3] > 100 µM | [4] > 100 µM | [16] > 100 µM | [5] > 100 µM | [6] > 100 µM | [7] > 100 µM | [9] > 100 µM | [10] > 100 µM | [11] > 100 µM | [13] > 100 µM | [14] > 100 µM | [15] > 100 µM

CC(C)OP(=O)(OC(C)C)/C(=N/Nc1ccc([N+](=O)[O-])cc1)Nc1ccccc1
inactive: [1] 34.8 µM | [2] 24.1 µM | [16] 40.1 µM | [5] 12.2 µM | [6] 35.1 µM | [7] 21 µM | [8] 29.7 µM | [9] 21.2 µM | [10] > 100 µM | [11] 23.1 µM | [12] 20.2 µM | [13] 48.6 µM | [14] 36.7 µM

C#Cc1c(C)c(/C=C/C(C)=C/C(=O)OC)n(C)c1C
inactive: [1] 71.9 µM | [2] > 100 µM | [3] 58.1 µM | [6] > 100 µM | [7] > 100 µM | [8] > 100 µM | [9] > 100 µM | [10] > 100 µM | [11] > 100 µM | [12] > 100 µM | [13] > 100 µM | [14] > 100 µM | [15] > 100 µM

CC(C)c1cc(C(C)C)c(S(=O)(=O)N=[N+]=[N-])c(C(C)C)c1
inactive: [1] > 100 µM | [2] > 100 µM | [3] 46.6 µM | [4] 68.4 µM | [5] > 100 µM | [7] > 100 µM | [8] > 100 µM | [9] 44 µM | [10] > 100 µM | [11] > 100 µM | [12] > 100 µM | [13] > 100 µM | [14] > 100 µM

c1cc2ccc1C1NCCCN1CCN1CCCNC1c1ccc(cc1)C1NCCCN1CCN1CCCNC21 (configuration not stated)
inactive: [1] > 100 µM | [2] > 100 µM | [3] > 100 µM | [16] > 100 µM | [5] > 100 µM | [6] > 100 µM | [7] > 100 µM | [8] > 100 µM | [9] 54.2 µM | [10] > 100 µM | [11] > 100 µM | [12] 99.8 µM | [13] > 100 µM | [14] > 100 µM | [15] > 100 µM

CC(=O)C1(O)CC2(c3ccccc3)C(=O)C1(c1ccccc1)C(c1ccccc1)=C2c1ccccc1 (configuration not stated)
inactive: [1] > 100 µM | [2] > 100 µM | [3] > 100 µM | [4] > 100 µM | [5] 44 µM | [6] > 100 µM | [7] 35.6 µM | [8] > 100 µM | [9] 81.3 µM | [10] 49.1 µM | [11] 54.6 µM | [12] > 100 µM | [13] > 100 µM | [14] > 100 µM | [15] 33.4 µM

COC(=O)C1CC2c3c(c4ccccc4n3C)CC(C1=O)N2C (configuration not stated)
inactive: [1] 34.5 µM | [2] 47.5 µM | [3] 42.1 µM | [16] > 100 µM | [5] 25.1 µM | [6] 57.1 µM | [7] 32.8 µM | [9] 49.8 µM | [10] > 100 µM | [11] 36.4 µM | [12] 37.8 µM | [13] 67.8 µM | [14] 75.9 µM | [15] > 100 µM

CCC1C(C)c2c([nH]c3ccccc23)C2C(=O)N(c3ccccc3)C(=O)C21 (configuration not stated)
inactive: [1] 14.5 µM | [2] 16.9 µM | [3] 12.5 µM | [4] 12.7 µM | [5] 15.4 µM | [6] 14 µM | [9] 14.6 µM | [11] 17.3 µM | [12] 17.8 µM | [13] 13.5 µM | [15] 15.1 µM
